Experiments:
[1] = test system: SMN2 minigene mRNA (SMN2-A minigene) in HEK293H cells; test: SMN2 minigene mRNA splicing RT-qPCR assay in cultured cells; assay type: cell-based, human; settings: Homo sapiens, HEK293-H; concentration increasing full length SMN2 mRNA 1.5-fold relative to vehicle-treated cells; HEK293H cells with SMN2-A minigene, 24 hours, 7-point concentration data; read-out: EC1.5x for production of full length SMN2 mRNA
Procedure, shortened: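 Stable SMN2-A minigene HEK293H; cpd 7-pt 3.16-fold series, 200× in DMSO, 24 h, 37 °C, n=2. Lysates → multiplex RT-qPCR (minigene FL + GAPDH), efficiency-corrected ΔΔCt vs vehicle. EC1.5× = 1.5-fold FL mRNA gain.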

[2] = test system: Smn protein in SMA patient fibroblast cells (GM03813); test: Smn protein assay in cultured cells (SMN HTRF); assay type: cell-based, human; settings: SMA patient fibroblast cells, 48 hours; for maximum fold (Fold) increase of Smn protein: 7-point concentration data, fold relative to vehicle control; for EC1.5x for Smn protein expression: 7-point concentration curve, SMN HTRF, concentration producing 1.5 times Smn protein vs DMSO vehicle control
Procedure, shortened: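 Fibroblasts, SMA patient; 5,000 cells/well; 7-pt curve, 3.16-fold serial dilution; 48 h, 37 °C, 5% CO2; RIPA lysis 1 h RT; anti-SMN d2 + kryptate overnight RT; HTRF 665/620 nm; fold vs DMSO; EC1.5×, max fold.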

Row | SMILES | EC (1.5-fold increase) [1] [µM] | melting point [°C] | maximum fold (Fold) increase of Smn protein [2] | EC1.5x for Smn protein expression [2]
1 | Cc1nc2cc(-c3cc(=O)n4cc(N5CCC(N(C)C)CC5)ccc4n3)ccc2s1 [Compound 347, 7-[4-(dimethylamino)piperidin-1-yl]-2-(2-methyl-1,3-benzothiazol-5-yl)-4H-pyrido[1,2-a]pyrimidin-4-one] | < 0.1 | 218 to 220 | *** (a fold increase between >1.35 and ≤1.5 is indicated by three stars (***)) | –
2 | Cc1nc2cc(-c3cc(=O)n4cc(N5CCC(N)CC5)ccc4n3)ccc2s1 [Compound 348, 7-(4-aminopiperidin-1-yl)-2-(2-methyl-1,3-benzothiazol-5-yl)-4H-pyrido[1,2-a]pyrimidin-4-one] | 0.1 to 0.3 | 190 to 192 | ** (a fold increase between >1.2 and ≤1.35 is indicated by two stars (**)) | –
3 | Cc1cn2nc(-c3cc(=O)n4cc(C5=CCN(C)CC5)ccc4n3)cc2c(C)n1 [Compound 350, 2-(4,6-dimethylpyrazolo[1,5-a]pyrazin-2-yl)-7-(1-methyl-1,2,3,6-tetrahydropyridin-4-yl)-4H-pyrido[1,2-a]pyrimidin-4-one] | < 0.1 | 193 to 197 | ***** (a fold increase >1.65 is indicated by five stars (*****)) | **** (an EC1.5x≤0.3 μM is indicated by four stars (****))
4 | CCN1CC=C(c2ccc3nc(-c4cc5c(C)nc(C)cn5n4)cc(=O)n3c2)CC1 [Compound 351, 2-(4,6-dimethylpyrazolo[1,5-a]pyrazin-2-yl)-7-(1-ethyl-1,2,3,6-tetrahydropyridin-4-yl)-4H-pyrido[1,2-a]pyrimidin-4-one] | < 0.1 | 202 to 204 | ***** (a fold increase >1.65 is indicated by five stars (*****)) | **** (an EC1.5x≤0.3 μM is indicated by four stars (****))
5 | CCCN1CC=C(c2ccc3nc(-c4cc5c(C)nc(C)cn5n4)cc(=O)n3c2)CC1 [Compound 352, 2-(4,6-dimethylpyrazolo[1,5-a]pyrazin-2-yl)-7-(1-propyl-1,2,3,6-tetrahydropyridin-4-yl)-4H-pyrido[1,2-a]pyrimidin-4-one] | < 0.1 | 191 to 193 | **** (a fold increase between >1.5 and ≤1.65 is indicated by four stars (****)) | **** (an EC1.5x≤0.3 μM is indicated by four stars (****))
6 | Cc1cn2nc(-c3cc(=O)n4cc(C5=CCN(C(C)C)CC5)ccc4n3)cc2c(C)n1 [Compound 355, 2-(4,6-dimethylpyrazolo[1,5-a]pyrazin-2-yl)-7-[1-(propan-2-yl)-1,2,3,6-tetrahydropyridin-4-yl]-4H-pyrido[1,2-a]pyrimidin-4-one] | < 0.1 | 186 to 189 | **** (a fold increase between >1.5 and ≤1.65 is indicated by four stars (****)) | *** (an EC1.5× between >0.3 μM and ≤1 μM is indicated by three stars (***))
7 | Cc1cn2nc(-c3cc(=O)n4cc(C5=CCN(C6CCC6)CC5)ccc4n3)cc2c(C)n1 [Compound 356, 7-(1-cyclobutyl-1,2,3,6-tetrahydropyridin-4-yl)-2-(4,6-dimethylpyrazolo[1,5-a]pyrazin-2-yl)-4H-pyrido[1,2-a]pyrimidin-4-one] | < 0.1 | 191 to 193 | **** (a fold increase between >1.5 and ≤1.65 is indicated by four stars (****)) | *** (an EC1.5× between >0.3 μM and ≤1 μM is indicated by three stars (***))
8 | COc1ccc(-c2cc(=O)n3cc(N4CCNCC4)c(C)cc3n2)cc1OC [Compound 360, 2-(3,4-dimethoxyphenyl)-8-methyl-7-(piperazin-1-yl)-4H-pyrido[1,2-a]pyrimidin-4-one] | 1 to 3 | 161 to 169 | * (A maximum fold increase of ≤1.2 is indicated by one star (*)) | –

Source: patent US11753407B2, “Compounds for treating spinal muscular atrophy” (PTC Therapeutics, Inc., priority 2012, dated 2023)
